From patent US10064871B2, “Methods of treating skin disorders” (Biomimetix JV, LLC, priority 2014, dated 2018)

What was measured:
plaque-forming psoriasis = assay: Topical treatment of plaque-forming psoriasis on the legs of one subject; format: in vivo, human
Protocol: The therapeutic efficacy of MnTnBuOE-2-PyP^5+ when topically delivered was evaluated in a person with large areas of moderately severe plaque-forming psoriasis on upper and lower portions of both legs, with each involved area being approximately 10-20 cm in diameter. MnTnBuOE-2-PyP^5+ was formulated in LIPODERM® topical compounding cream base (available from the Professional Compounding Centers of America (PCCA)). at 0.01% and 0.1% concentrations producing a light brown cream which was applied b.i.d. to lesions on one extremity.

[1] = tested on: psoriatic involvement of the scalp; assay: Topical treatment of psoriatic involvement of the scalp of one subject; format: in vivo, human
From the text: A second subject with psoriatic involvement of the scalp of moderate severity was topically treated with MnTnBuOE-2-PyP^5+0.1% in LIPODERM® cream base twice daily for 3 weeks.

[2] = 0.01% and 0.1% in LIPODERM cream base, topical b.i.d., within 5 days

Manganese ortho tetrakis(N-n-butoxyethylpyridinium-2-yl)porphyrin [MnTnBuOE-2-PyP^5+]
time to marked improvement (plaque-forming psoriasis; 0.01% and 0.1% in LIPODERM cream base, topical b.i.d.): ≤ 5 days | area of remaining mild psoriatic reaction (plaque-forming psoriasis; [2]): decrease in the area of remaining mild psoriatic reaction | clinical irritation (plaque-forming psoriasis; [2]): marked decrease in clinical irritation | inflammation of lesions (plaque-forming psoriasis; [2]): decreased inflammation | efficacy of 0.01% compared with 0.1% cream (plaque-forming psoriasis; lesions treated with 0.01% and 0.1% in LIPODERM cream base): Equivalent efficacy | clinical improvement of psoriatic lesions (plaque-forming psoriasis; person, moderately severe plaque psoriasis of legs, 0.01% and 0.1% in LIPODERM cream base, topical b.i.d.): Marked improvement | return of the psoriatic reaction ([1]; 30 days after treatment stopped, 0.1% in LIPODERM cream base twice daily for 3 weeks): No return of the psoriatic reaction was observed | psoriatic scalp reaction after treatment ([1]; person, moderate severity, 0.1% in LIPODERM cream base, topical twice daily for 3 weeks): Complete resolution
